Reference: patent US20140154251A1, “ANTI C-MET ANTIBODY AND USES THEREOF” (Samsung Electronics Co., Ltd., priority 2011, published 2014)

B1: L3-11Y: heavy chain of huAbF46-H4-A1 (IgG2 Fc) with light chain SEQ ID NO: 73 (serine 27e replaced with tryptophan) (antibody)
heavy: EVQLVESGGGLVQPGGSLRLSCAASGFTFTDYYMSWVRQAPGKGLEWLGFIRNKANGYTTEYSASVKGRFTISRDNSKNTLYLQMNSLRAEDTAVYYCARDNWFAYWGQGTLVTVSSASTKGPSVFPLAPCSRSTSESTAALGCLVKDYFPEPVTVSWNSGALTSGVHTFPAVLQSSGLYSLSSVVTVPSSNFGTQTYTCNVDHKPSNTKVDKTVERKCCVECPPCPAPPVAGPSVFLFPPKPKDTLMISRTPEVTCVVVDVSHEDPEVQFNWYVDGVEVHNAKTKPREEQFNSTFRVVSVLTVVHQDWLNGKEYKCKVSNKGLPAPIEKTISKTKGQPREPQVYTLPPSREEMTKNQVSLTCLVKGFYPSDIAVEWESNGQPENNYKTTPPMLDSDGSFFLYSKLTVDKSRWQQGNVFSCSVMHEALHNHYTQKSLSLSPGK
light: DIQMTQSPSSLSASVGDRVTITCKSSQSLLAWGNQNNYLAWYQQKPGKAPKMLIIWASTRVSGVPSRFSGSGSGTDFTLTISSLQPEDFATYYCQQSYSRPYTFGQGTKVEIKRTVAAPSVFIFPPSDEQLKSGTASVVCLLNNFYPREAKVQWKVDNALQSGNSQESVTEQDSKDSTYSLSSTLTLSKADYEKHKVYACEVTHQGLSSPVTKSFNRGEC

Tests used:
[1] = system: MHCC97H (human liver cancer cell line); assay: MHCC97H liver cancer xenograft model; type: in vivo, BALB/C nude mouse; conditions: 30 mg/kg p.o., q.d. x 4 weeks
Experimental: The antitumor activity of huAbF46-H4-A1(IgG2 Fc) was evaluated in a BALB/C nude mouse MHCC97H (human liver cancer cell line) xenograft model (referring to Example 16.2). Approximately 3 million MHCC97H cells in 100 μL of serum-free media were injected via s.c. to each of the 140 mice under anesthesia by 1-2% isoflurane. Ten days after subcutaneous inoculation with MHCC97H tumor cells, dosing commenced in the following treatment groups: 0 (PBS vehicle), 0.2, 1, 5 or 10 mg/kg huAbF46-H4-A1 (IgG2 Fc) i.v., q.w.×4 weeks; 30 mg/kg sorafenib p.o., q.d.×4 weeks (positive control). Each group consisted of 15 mice. Tumor volumes and body weights were measured two to three times a week for total study period about 4 weeks. The tumor volume (V) was calculated as follows: V (mm^3)={long axis length (mm)×(short axis length (mm))^2}/2.

Akt = Akt phosphorylation in Caki-1 cells (phospho-AKT1 Ser473 ELISA); type: cell-based; conditions: 5 ug/ml, 30 minutes (FIG. 8B)
Experimental: (§1) To compare agonism of the 4 types of antibodies having improved affinities, as prepared in Example 5, Caki-1 cells (Korean Cell Line Bank) were used to confirm the degree of Akt phosphorylation. Mouse IgG was used as a negative control, and antibody 5D5 (a known agonist) was used as a positive control.
(§2) 2×10^5 cells/ml of Caki-1 cells were introduced to a 96-well plate, and after 24 hours, each of 5 ug/ml of the antibodies was treated in serum free medium for 30 minutes. Lysis of the cells treated with the antibodies was performed and the degree of Akt phosphorylation was measured using a PathScan phospho-AKT1 (Ser473) chemiluminescent Sandwich ELISA kit (Cell Signaling, cat. no #7134S).
as §1, with “3” for “4”, “11,” for “5,”, “and a 5D5” for “and”, “antibody” for “antibody 5D5”
as §2, with “with” for “with the”, “and a” for “and the”, “phosphorylation inhibition” for “phosphorylation”, “(Ser473) a” for “(Ser473)”

Molecule | tumor growth (in words) [1] | activity of Akt phosphorylation inhibition compared to huAbF46-H4-A1(IgG2 Fc) (Akt)
CNC(=O)c1cc(Oc2ccc(NC(=O)Nc3ccc(Cl)c(C(F)(F)F)c3)cc2)ccn1 [sorafenib, reference compound] | significant inhibition | 
B1 |  | equal or higher activity of Akt phosphorylation inhibition
